The assay concerns the target T1, KIAA1363 (Mus musculus, UniProt Q8BLF1).
T1 construct: ABPP analysis of KIAA1363 activity in mouse brain membrane proteome; from tissue; host or cells: mouse brain (membrane fraction)
T1 sequence (Q8BLF1 1-408): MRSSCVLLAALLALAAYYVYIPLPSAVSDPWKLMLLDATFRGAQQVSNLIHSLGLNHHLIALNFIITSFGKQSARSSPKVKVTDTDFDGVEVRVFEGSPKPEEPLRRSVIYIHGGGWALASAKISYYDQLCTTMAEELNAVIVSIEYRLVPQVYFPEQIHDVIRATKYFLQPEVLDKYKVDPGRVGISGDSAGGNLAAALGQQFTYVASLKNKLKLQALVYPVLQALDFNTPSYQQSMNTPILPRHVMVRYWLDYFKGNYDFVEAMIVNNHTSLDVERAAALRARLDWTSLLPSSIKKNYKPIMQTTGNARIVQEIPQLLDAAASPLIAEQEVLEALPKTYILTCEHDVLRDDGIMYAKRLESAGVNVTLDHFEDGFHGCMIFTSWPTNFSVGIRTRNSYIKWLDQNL
Kind of assay: Gel-based competitive ABPP of KIAA1363 in mouse brain membrane proteome (FP-rhodamine). The assay is classed as biochemical. The procedure: In various embodiments, the invention provides a method of inhibiting a serine hydrolase, comprising contacting the hydrolase with a compound of formula (I), e.g., a compound selected from set of compounds shown in Table 1, below. […] IC50 values were derived from ABPP analysis of KIAA1363 activity in mouse brain membrane proteome and are averages of three replicates. Inhibitors were added to the proteome for 30 min before addition of FP-rhodamine (1 μM, 30 min).
Tissues were Dounce-homogenized in PBS, pH 7.4, followed by a low-speed spin (1,400 g, 5 min) to remove debris. The supernatant was then subjected to centrifugation (100,000×g, 45 min) to provide the cytosolic fraction in the supernatant and the unsoluble fraction as a pellet. The pellet was washed and resuspended in PBS buffer by sonication. Total protein concentration in each fraction was determined using a protein assay kit (Bio-Rad). Samples were stored at −80° C. until use.
For ABPP experiments, cell lysate and tissue proteomes were treated with 1 μM FP-rhodamine for 30 min at room temperature (50 μL total reaction volume) as described previously (Nomura et al., 2010). Reactions were quenched with one volume of standard 4×SDS/PAGE loading buffer (reducing), separated by SDS/PAGE (10% acrylamide), and visualized in-gel with a Hitachi FMBio IIe flatbed fluorescence scanner (MiraiBio). Inhibitors were preincubated prior (30 min or 4 h at 37° C. in vitro or in situ, respectively) to the addition of FP-rhodamine.

Where [1] appears, read: mouse brain membrane proteome, inhibitor 30 min before FP-rhodamine (1 μM, 30 min), averages of three replicates, read-out: IC50 (KIAA1363).
The mark [2] stands for this setting: screened against KIAA1363, Table 1, read-out: IC50 values of less than 1 micromolar.

Structures are written as SMILES. Where two headings read alike, the source gives them in different places.

Consider `CCOc1ccccc1OC(=O)NCCCc1ccccc1`, for which the IC50 under setting [1] turned out to be 1790 nM.
`Cc1ccc2ccccc2c1OC(=O)NCc1ccc(-c2ccccc2)cc1`: the IC50 under setting [1] is > 50000 nM.
For the compound `CCOc1ccccc1OC(=O)NCc1ccc(-c2ccccc2)cc1`, under setting [1], the IC50 was > 50000 nM.
Regarding `CCOc1ccccc1OC(=O)NCCc1cccs1`, the half-maximal inhibitory concentration (IC50) under setting [1] is > 10000 nM.
In the case of `CCOc1ccccc1OC(=O)NCCc1ccc2ccccc2c1`, the IC50 by setting is: under setting [1], 890 nM; under setting [2], < 1000 nM.
For `CC1(C)Cc2cccc(OC(=O)NCc3ccc(I)cc3)c2O1` [JW147, 2,2-dimethyl-2,3-dihydrobenzofuran-7-yl 4-iodobenzylcarbamate], the half-inhibitory concentration (IC50) was 148 nM under setting [1] and < 1000 nM under setting [2].
On to `O=C(NCCc1ccc(F)cc1)Oc1ccc(-n2cccc2)cc1` [JW382, 4-(1H-pyrrol-1-yl)phenyl 4-fluorophenethylcarbamate], for which, under setting [1], the IC50 is 1200 nM.
For `O=C(NCc1ccc(C(F)(F)F)cc1)Oc1ccc(-n2cccc2)cc1` [JW383, 4-(1H-pyrrol-1-yl)phenyl 4-(trifluoromethyl)benzylcarbamate], the IC50 was 997 nM under setting [1] and < 1000 nM under setting [2].
Take `COc1ccc(CNC(=O)Oc2ccc(-n3cccc3)cc2)cc1` [JW384, 4-(1H-pyrrol-1-yl)phenyl 4-methoxybenzylcarbamate]: the IC50 is 668 nM under setting [1] and < 1000 nM under setting [2].
Regarding `Cc1ccc2ccccc2c1OC(=O)NCc1ccc(C(F)(F)F)cc1` [JW385, 2-methylnaphthalen-1-yl 4-(trifluoromethyl)benzylcarbamate], the IC50 under setting [1] is > 50000 nM.
Turning to `COc1ccc(CNC(=O)Oc2c(C)ccc3ccccc23)cc1` [JW386, 2-methylnaphthalen-1-yl 4-methoxybenzylcarbamate], the IC50 under setting [1] is > 10000 nM.
For the compound `CCOc1ccccc1OC(=O)NCc1ccc(C(F)(F)F)cc1` [JW387, 2-ethoxyphenyl 4-(trifluoromethyl)benzylcarbamate], the IC50 under setting [1] amounted to 2820 nM.
On the same count and under the same terms, in the case of `CCOc1ccccc1OC(=O)NCc1ccc(OC)cc1` [JW388, 2-ethoxyphenyl 4-methoxybenzylcarbamate] it was 1610 nM.
As to `O=C(NCc1ccc(OC(F)(F)F)cc1)Oc1ccc(-n2cccc2)cc1` [JW389, 4-(1H-pyrrol-1-yl)phenyl 4-(trifluoromethoxy)benzylcarbamate], the IC50 runs as follows: under setting [1], 263 nM; under setting [2], < 1000 nM.
As to `Cc1ccc2ccccc2c1OC(=O)NCc1ccc(OC(F)(F)F)cc1` [JW390, 2-methylnaphthalen-1-yl 4-(trifluoromethoxy)benzylcarbamate], under setting [1], the IC50 was > 10000 nM.
`CCOc1ccccc1OC(=O)NCc1ccc(OC(F)(F)F)cc1` [JW391, 2-ethoxyphenyl 4-(trifluoromethoxy)benzylcarbamate]: under setting [1], the IC50 was 1050 nM.
On to `O=C(NCc1ccc(Cl)cc1)Oc1ccc(-n2cccc2)cc1` [JW392, 4-(1H-pyrrol-1-yl)phenyl 4-chlorobenzylcarbamate], for which the IC50 is, setting by setting: under setting [1], 385 nM; under setting [2], < 1000 nM.
Regarding `O=C(NCCCc1ccccc1)Oc1ccc(-n2cccc2)cc1` [JW393, 4-(1H-pyrrol-1-yl)phenyl (3-phenylpropyl)carbamate], the IC50 under setting [1] is > 50000 nM.
As for `Cc1ccc2ccccc2c1OC(=O)NCc1ccc(Cl)cc1` [JW395, 2-methylnaphthalen-1-yl 4-chlorobenzylcarbamate], the IC50 under setting [1] is > 50000 nM.
The same measure, in the same setting: in the case of `Cc1ccc2ccccc2c1OC(=O)NCCCc1ccccc1` [JW396, 2-methylnaphthalen-1-yl (3-phenylpropyl)carbamate] it was > 10000 nM.
In the case of `CCOc1ccccc1OC(=O)NCc1ccc(Cl)cc1` [JW398, 2-ethoxyphenyl 4-chlorobenzylcarbamate], the IC50 is, setting by setting: under setting [1], 977 nM; under setting [2], < 1000 nM.
As for `CCCCc1ccc(CNC(=O)Oc2c(C)ccc3ccccc23)cc1` [JW406, 2-methylnaphthalen-1-yl 4-butylbenzylcarbamate], the IC50 under setting [1] is > 50000 nM.
On to `CCCCc1ccc(CNC(=O)Oc2ccccc2OCC)cc1` [JW409, 2-ethoxyphenyl 4-butylbenzylcarbamate], for which, under setting [1], the IC50 was > 50000 nM.
In the case of `O=C(NCCc1ccc(Br)cc1)Oc1ccc(-n2cccc2)cc1` [JW412, 4-(1H-pyrrol-1-yl)phenyl 4-bromophenethylcarbamate], the IC50 under setting [1] turned out to be 1660 nM.
In the case of `O=C(NCCc1cccs1)Oc1ccc(-n2cccc2)cc1` [JW413, 4-(1H-pyrrol-1-yl)phenyl (2-(thiophen-2-yl)ethyl)carbamate], the IC50 runs as follows: under setting [1], 618 nM; under setting [2], < 1000 nM.
As to `O=C(NCCc1ccc2c(c1)OCO2)Oc1ccc(-n2cccc2)cc1` [JW414, 4-(1H-pyrrol-1-yl)phenyl (2-(benzo[d][1,3]dioxol-5-yl)ethyl)carbamate], under setting [1], the IC50 was > 10000 nM.
For the compound `Cc1ccc2ccccc2c1OC(=O)NCCc1ccc(Br)cc1` [JW415, 2-methylnaphthalen-1-yl 4-bromophenethylcarbamate], the IC50 under setting [1] was 1080 nM.
Consider `Cc1ccc2ccccc2c1OC(=O)NCCc1cccs1` [JW416, 2-methylnaphthalen-1-yl (2-(thiophen-2-yl)ethyl)carbamate], for which, under setting [1], the IC50 was found to be 3310 nM.
`Cc1ccc2ccccc2c1OC(=O)NCCc1ccc2c(c1)OCO2` [JW417, 2-methylnaphthalen-1-yl (2-(benzo[d][1,3]dioxol-5-yl)ethyl)carbamate]: the IC50 by setting is: under setting [1], 142 nM; under setting [2], < 1000 nM.
`CCOc1ccccc1OC(=O)NCCc1ccc(Br)cc1` [JW418, 2-ethoxyphenyl 4-bromophenethylcarbamate]: the IC50 runs as follows: under setting [1], 329 nM; under setting [2], < 1000 nM.
Take `CCOc1ccccc1OC(=O)NCCc1ccc2c(c1)OCO2` [JW420, 2-ethoxyphenyl (2-(benzo[d][1,3]dioxol-5-yl)ethyl)carbamate]: under setting [1], the IC50 is 1340 nM.
Regarding `O=C(NCCc1ccc(Cl)c(Cl)c1)Oc1ccc(-n2cccc2)cc1` [JW421, 4-(1H-pyrrol-1-yl)phenyl 3,4-dichlorophenethylcarbamate], under setting [1], the IC50 was > 10000 nM.
With `Cc1ccc2ccccc2c1OC(=O)NCCc1ccc(Cl)c(Cl)c1` [JW422, 2-methylnaphthalen-1-yl 3,4-dichlorophenethylcarbamate], the IC50 under setting [1] came out at 665 nM and the IC50 under setting [2] is < 1000 nM.
With `CCOc1ccccc1OC(=O)NCCc1ccc(Cl)c(Cl)c1` [JW423, 2-ethoxyphenyl 3,4-dichlorophenethylcarbamate], the IC50 is, setting by setting: under setting [1], 498 nM; under setting [2], < 1000 nM.
In the case of `O=C(NCCN1CCOCC1)Oc1ccc(-n2cccc2)cc1` [JW425, 4-(1H-pyrrol-1-yl)phenyl (2-morpholinoethyl)carbamate], the IC50 is > 50000 nM.
For the compound `O=C(NCCc1cc2ccccc2[nH]1)Oc1ccc(-n2cccc2)cc1` [JW426, 4-(1H-pyrrol-1-yl)phenyl (2-(1H-indol-2-yl)ethyl)carbamate], the IC50 under setting [1] is > 50000 nM.
As for `Cc1ccc2ccccc2c1OC(=O)NCCN1CCOCC1` [JW427, 2-methylnaphthalen-1-yl (2-morpholinoethyl)carbamate], the IC50 was > 50000 nM.
`Cc1ccc2ccccc2c1OC(=O)NCCc1cc2ccccc2[nH]1` [JW428, 2-methylnaphthalen-1-yl (2-(1H-indol-2-yl)ethyl)carbamate]: the concentration for half-maximal inhibition (IC50) under setting [1] turned out to be 3940 nM.
In the case of `CCOc1ccccc1OC(=O)NCCN1CCOCC1` [JW429, 2-ethoxyphenyl (2-morpholinoethyl)carbamate], the IC50 is > 50000 nM.
Regarding `CCOc1ccccc1OC(=O)NCCc1cc2ccccc2[nH]1` [JW430, 2-ethoxyphenyl (2-(1H-indol-2-yl)ethyl)carbamate], under setting [1], the IC50 is > 50000 nM.
Consider `COc1ccc(CCNC(=O)Oc2ccc(-n3cccc3)cc2)cc1` [JW431, 4-(1H-pyrrol-1-yl)phenyl 4-methoxyphenethylcarbamate], for which the IC50 under setting [1] turned out to be 1290 nM.
Consider `COc1cccc(CCNC(=O)Oc2ccc(-n3cccc3)cc2)c1` [JW432, 4-(1H-pyrrol-1-yl)phenyl 3-methoxyphenethylcarbamate], for which the IC50 under setting [1] was > 10000 nM.
As to `O=C(NCCC(c1ccccc1)c1ccccc1)Oc1ccc(-n2cccc2)cc1` [JW433, 4-(1H-pyrrol-1-yl)phenyl (3,3-diphenylpropyl)carbamate], under setting [1], the IC50 was > 50000 nM.
The same measure, in the same setting: for `O=C(NCC(c1ccccc1)c1ccccc1)Oc1ccc(-n2cccc2)cc1` [JW434, 4-(1H-pyrrol-1-yl)phenyl (2,2-diphenylethyl)carbamate] the value was > 50000 nM.
For `O=C(NCCc1ccc2ccccc2c1)Oc1ccc(-n2cccc2)cc1` [JW435, 4-(1H-pyrrol-1-yl)phenyl (2-(naphthalen-2-yl)ethyl)carbamate], the IC50 under setting [1] is > 50000 nM.
